Assay results as given in patent publication US20240124510A1, “Cyclic Glycoaminoacid Derivatives” (TFCHEM, priority 2021, published 2024).
Several values for one entry are separate records, joined by “and”; a condition that tells them apart may be missing. Equal entries are not always repeated.

Assays:
human preadipocytes [1] = assay: Total lipid accumulation (AdipoRed staining) in preadipocytes/adipocytes in inflammatory condition; format: cell-based; settings: for Total Lipid Accumulation (Adipored staining), Mean / Total Lipid Accumulation (Adipored staining), Values: end of the culture; for Total Lipid Accumulation (Adipored staining), Values: individual values
Method: (§1) Preadipocytes have been isolated from human female hypodermis (body mass index <30 kg/m2 and <45 years old). Preadipocytes have been cultured for 24 h in 100 μl of DMEM-10% Fetal Bovine Serum (FBS) in 96-well plates. Then cells were treated to induce their differentiation in a classical or an inflammatory environment for 13 days.
(§2) To induce the preadipocytes differentiation cells were incubated in a proadipogenic cocktail (PAC) including insulin, glucocorticoid, 3-isobutyl-1-methylxanthine (IBMX), and thiazolinedione in DMEM.
(§3) To induce a fibro-inflammatory environment, cells were treated with an activated human macrophage-conditioned medium (AcMC) prepared in RPMI medium. A treatment with Dexamethasone (DXM) at 100 nM was used as anti-inflammatory response control. At D0: preadipocytes have been treated in the following conditions: • “Undifferentiation”: DMEM+¼ RPMI medium • “Differentiation”: PAC+¼ RPMI medium • “AcMC” i.e. inflammatory condition: PAC+¼ AcMC • “AcMC+DXM”: PAC+[…] AcMC+anti-inflammatory DXM at 100 nM • “AcMc+compounds”: PAC+14 AcMC+compounds to be tested
(§4) All conditions have been performed in triplicate. The medium has been changed every 2 days for 13 days.
After 14 days of culture, preadipocytes have been fixed with 4% paraformaldehyde and then stained by AdipoRed™ at room temperature to reveal the intracellular lipid droplets. Quantification of lipid accumulation has been performed by fluorescence intensity measurements using the spectrophotometer Spark (TECAN).
(§5) Lipid accumulation and Lipid index were evaluated for each condition. Data are represented in percentage of proinflammatory control condition (AcMC condition).

human preadipocytes [2] = assay: Lipid index (AdipoRed area*intensity, imaging) in preadipocytes in inflammatory condition; format: cell-based; settings: for Lipid Index (Adipored area * intensity), Mean / Lipid Index (Adipored area * intensity), Values: normalized by cells number (DAPI); for Lipid Index (Adipored area * intensity), Values: individual values
Method: as §1, §2, §3, §4
A second analysis of lipid accumulation was performed with an imaging acquisition and quantification. The area and the intensity of the lipid droplets were evaluated and quantified for more accurate data. An index was calculated (area*intensity of the AdipoRed staining) and normalized by cells number.
as §5

MCP1 = assay: Extracellular secretion of MCP1 by preadipocytes in inflammatory condition (ELISA); format: cell-based, human; settings: for MCP1 secretion, Mean (%) / MCP1 secretion, Values (%): inflammatory condition, normalized by cells number (Dapi); for MCP1 secretion, Values (%): individual values; for MCP1 secretion compared to the AcMC control condition fixed at 100%: differentiated preadipocytes
Method: as §1, §2, §3, §4
At D14: during the last 24 h of culture, the medium has been replaced by DMEM/F12 medium in all conditions, to collect cells' secretions.
After 13 days, the 24 h culture media of the different conditions have been collected at the end of the treatment period. The concentrations of IL-6, procollagen I and MCP1 have been evaluated by ELISA assays using specific kits (for IL-6: DY206, DuoSet ELISA, R&D Systems; for Procollagen I: DY6220-05, DuoSet ELISA, R&D Systems; for MCP1: DY279-05 DuoSet ELISA, R&D Systems) according to the manufacture's recommendations. Values have been normalized to the cell number determined by DAPI staining.
Quantity of MCP1 secreted in medium was measured and was normalized by cell number in each culture condition. Data are represented in percentage of proinflammatory control condition (AcMC condition).

[3] = system: Normal human epidermal keratinocytes (NHEK); assay: Lipid peroxidation in NHEK under UV stimulation (C11-fluor probe, flow cytometry); format: cell-based; settings: for % Irradiated control (lipid peroxidation) / % Protection (lipid peroxidation) / C11-fluor 1/GMFI Mean (AU) / C11-fluor 1/GMFI (AU) / C11-fluor GMFI (AU): irradiated UVB 300 mJ/cm^2 (+UVA 2.1 J/cm^2); for C11-fluor 1/GMFI (AU) / C11-fluor GMFI (AU): individual replicates
Method: Normal human epidermal keratinocytes were seeded in 48-well plates and cultured in culture medium for 24 hours and then in assay medium for a further 24 hours. The medium was then removed and replaced by assay medium containing or not (irradiated control) the test compounds or the reference (BHA—butylated hydroxyanisole, lipid peroxidation inhibitor—at 100 μM) and the cells were pre-incubated for 24 hours. After pre-incubation, the specific fluorescent probe for the measurement of lipid peroxides (C11-fluor) was added and the cells were incubated for 45 minutes. Then, the medium was removed and replaced by assay medium containing or not (irradiated control and test compound conditions) the reference and the cells were irradiated with UVB (+UVA)−300 mJ/cm^2 (+2.1 J/cm^2). The lamp used was a SOL500 Sun Simulator equipped with an H2 filter (Dr. Hbnle. AG). After irradiation, the medium was removed and replaced by assay medium containing or not (irradiated control) the test compounds or the reference and the cells were incubated for 30 minutes before flow cytometry analysis. A non-irradiated control condition was performed in parallel. All experimental conditions were performed in triplicate.
At the end of the incubation, in each well, the cells were trypsinized and transferred into specific tubes for the analysis of C11-fluor fluorescence intensity using a BD FACSVerse™ flow cytometer (acquisition of 2000 to 5000 events per tube). The C11-fluor fluorescent probe is a lipid analogue which integrates cell membranes. As the fluorescence intensity of this probe is decreased with oxidation, it is inversely proportional to the lipid peroxidation. In order to facilitate the result interpretation, the lipid peroxidation was expressed using the value “1/fluorescence intensity” in order to have a direct proportionality between the induction of lipid peroxidation and the values of “% of irradiated control”.
Results presented in Table 24 are expressed as fluorescence intensity and as […] of protection compared to the control.

Q: Which results are given for `N[C@H]1CCCN(CC(F)(F)[C@]2(O)O[C@H](CO)[C@H](O)[C@H](O)[C@H]2O)C1=O` [Compound 6]?
A: Total Lipid Accumulation (Adipored staining), Mean (human preadipocytes [1]; AcMC + 1 mg/ml): 126.8 % of AcMC condition; Total Lipid Accumulation (Adipored staining), Values (human preadipocytes [1]; AcMC + 1 mg/ml): 130.3 % of AcMC condition and 123.6 % of AcMC condition and 126.5 % of AcMC condition; Total Lipid Accumulation (Adipored staining), Mean (human preadipocytes [1]; AcMC + 2 mg/ml): 137.0 % of AcMC condition; Total Lipid Accumulation (Adipored staining), Values (human preadipocytes [1]; AcMC + 2 mg/ml): 137.2 % of AcMC condition and 132.3 % of AcMC condition and 141.4 % of AcMC condition; Total lipid synthesis (lipid accumulation) in the inflammatory media (human preadipocytes [1]; both concentration): increase lipid synthesis; Lipid Index (Adipored area * intensity), Mean (human preadipocytes [2]; AcMC + 1 mg/ml): 158.6 % of AcMC condition; Lipid Index (Adipored area * intensity), Values (human preadipocytes [2]; AcMC + 1 mg/ml): 150.8 % of AcMC condition and 156.6 % of AcMC condition and 168.4 % of AcMC condition; Lipid Index (Adipored area * intensity), Mean (human preadipocytes [2]; AcMC + 2 mg/ml): 297.9 % of AcMC condition; Lipid Index (Adipored area * intensity), Values (human preadipocytes [2]; AcMC + 2 mg/ml): 286.0 % of AcMC condition and 338.7 % of AcMC condition and 269.0 % of AcMC condition; Lipid index compared to AcMC control (human preadipocytes [2]; both concentration, inflammatory media): increased; MCP1 secretion, Mean (%) (MCP1; 1 mg/ml): 71 % of AcMC condition; MCP1 secretion, Values (%) (MCP1; 1 mg/ml): 58.8 % of AcMC condition and 67.5 % of AcMC condition and 85.6 % of AcMC condition; MCP1 secretion, Mean (%) (MCP1; 2 mg/ml): 65 % of AcMC condition; MCP1 secretion, Values (%) (MCP1; 2 mg/ml): 62.8 % of AcMC condition and 65.6 % of AcMC condition and 67.5 % of AcMC condition; MCP1 secretion compared to the AcMC control condition fixed at 100% (MCP1; 1 mg/ml): 71%; MCP1 secretion compared to the AcMC control condition fixed at 100% (MCP1; 2 mg/ml): 65%; % Irradiated control (lipid peroxidation) ([3]; 1 mg/ml): 66%; % Protection (lipid peroxidation) ([3]; 1 mg/ml): 37%; C11-fluor 1/GMFI Mean (AU) ([3]; 1 mg/ml): 5.6E−04 AU; C11-fluor 1/GMFI (AU) ([3]; 1 mg/ml): 4.7E−04 AU and 5.9E−04 AU and 6.2E−04 AU; C11-fluor GMFI (AU) ([3]; 1 mg/ml): 2118 AU and 1705 AU and 1608 AU; % Irradiated control (lipid peroxidation) ([3]; 3 mg/ml): 65%; % Protection (lipid peroxidation) ([3]; 3 mg/ml): 38%; C11-fluor 1/GMFI Mean (AU) ([3]; 3 mg/ml): 5.6E−04 AU; C11-fluor 1/GMFI (AU) ([3]; 3 mg/ml): 4.7E−04 AU and 5.1E−04 AU and 7.0E−04 AU; C11-fluor GMFI (AU) ([3]; 3 mg/ml): 2143 AU and 1970 AU and 1426 AU; Protection on lipid peroxidation (compared to the control) ([3]; NHEK irradiated with UVB (+UVA) 300 mJ/cm2 (+2.1 J/cm2), concentration not given): 38%
